Data: patent US9040528B2, “Chemical compounds 542” (AstraZeneca AB, priority 2008, dated 2015)

molecular target: Escherichia coli DNA gyrase A/B tetramer (Escherichia coli (strain K12), UniProt P0AES4+P0AES6); assay: DNA gyrase supercoiling activity fluorescence polarisation assay; type: biochemical; conditions: 5 nM enzyme, relaxed plasmid, 0.3 mM ATP, ambient temperature; read-out: E. coli DNA gyrase supercoiling IC50
Protocol: DNA Gyrase Supercoiling Activity Fluorescence Polarisation Assay
The supercoiling reactions may be quenched by the addition of 10 microliters/well of 40 nM oligodeoxynucleotide probe in 3× triplex-forming buffer consisting of 150 mM NaCl, and 150 mM sodium acetate at pH 3.5. The oligodeoxynucleotide probe may be 5′-BODIPY-FL-labeled […]. After 60 minutes, the fluorescence anisotropy of the BODIPY-FL may be measured in a Tecan Ultra plate reader, using 485 nm excitation and 535 nm emission filters equipped with polarizers. The IC50 may be determined by nonlinear regression using two control reactions. The first contains no test compound but 0.8% DMSO (100% activity) while the second control reaction contains 5 μM Ciprofloxacin and 0.8% DMSO (0% activity).

Compared with CC(=O)Nc1ccn(-c2noc3c(F)c4c(cc23)CC2(C(=O)NC(=O)NC2=O)[C@H]2[C@H](C)O[C@H](C)CN42)n1 (relative stereo) [Example 28, N-{1-[(2R,4S,4aS)-rel-11-fluoro-2,4-dimethyl-2′,4′,6′-trioxo-1,1′,2,3′,4,4′,4a,6′-octahydro-2′H,6H-spiro[1,4-oxazino[4,3-a][1,2]oxazolo[4,5-g]quinoline-5,5′-pyrimidin]-8-yl]-1H-pyrazol-3-yl}acetamide], CCOC(=O)c1cnn(-c2noc3c(F)c4c(cc23)CC2(C(=O)NC(=O)NC2=O)[C@H]2[C@H](C)O[C@H](C)CN42)c1 (relative stereo) [Example 37, ethyl 1-[(2R,4S,4aS)-rel-11-fluoro-2,4-dimethyl-2′,4′,6′-trioxo-1,1′,2,3′,4,4′,4a,6′-octahydro-2′H,6H-spiro[1,4-oxazino[4,3-a][1,2]oxazolo[4,5-g]quinoline-5,5′-pyrimidin]-8-yl]-1H-pyrazole-4-carboxylate] is 2.7-fold higher in IC50: 3.1 µM for the first, 8.5 µM for the second. The first is the more potent here.

Compared with Cc1cc(C(F)F)nn1-c1noc2c(F)c3c(cc12)CC1(C(=O)NC(=O)NC1=O)[C@H]1[C@H](C)O[C@H](C)CN31 (relative stereo) [Example 30, (2R,4S,4aS)-rel-8-[3-(difluoromethyl)-5-methyl-1H-pyrazol-1-yl]-11-fluoro-2,4-dimethyl-1,2,4,4a-tetrahydro-2′H,6H-spiro[isoxazolo[4,5-g][1,4]oxazino[4,3-a]quinoline-5,5′-pyrimidine]-2′,4′,6′(1′H,3′H)-trione], C[C@@H]1CN2c3c(cc4c(-n5cc(C#N)c(N)n5)noc4c3F)CC3(C(=O)NC(=O)NC3=O)[C@H]2[C@H](C)O1 (relative stereo) [Example 33, 3-amino-1-[(2R,4S,4aS)-rel-11-fluoro-2,4-dimethyl-2′,4′,6′-trioxo-1,1′,2,3′,4,4′,4a,6′-octahydro-2′H,6H-spiro[1,4-oxazino[4,3-a][1,2]oxazolo[4,5-g]quinoline-5,5′-pyrimidin]-8-yl]-1H-pyrazole-4-carbonitrile] is 5.4-fold lower in IC50: 5.4 µM for the first, 1 µM for the second. The second is the more potent here.

First: CCCNc1noc2c(F)c3c(cc12)CC1(C(=O)NC(=O)NC1=O)[C@H]1[C@H](C)O[C@H](C)CN31 (relative stereo) [Example 31, (2R,4S,4aS)-rel-11-fluoro-2,4-dimethyl-8-(propylamino)-1,2,4,4a-tetrahydro-2′H,6H-spiro[1,4-oxazino[4,3-a][1,2]oxazolo[4,5-g]quinoline-5,5′-pyrimidine]-2′,4′,6′(1′H,3′H)-trione]
Second: CCCN(C)c1noc2c(F)c3c(cc12)CC1(C(=O)NC(=O)NC1=O)[C@H]1[C@H](C)O[C@H](C)CN31 (relative stereo) [Example 50, (2R,4S,4aS)-rel-11-fluoro-2,4-dimethyl-8-[methyl(propyl)amino]-1,2,4,4a-tetrahydro-2′H,6H-spiro[1,4-oxazino[4,3-a][1,2]oxazolo[4,5-g]quinoline-5,5′-pyrimidine]-2′,4′,6′(1′H,3′H)trione]
The IC50 of the first is 4.4-fold higher: 2.2 µM for the first, 0.5 µM for the second.

Compared with C[C@@H]1CN2c3c(cc4c(N(C)Cc5ccccc5)noc4c3F)CC3(C(=O)NC(=O)NC3=O)[C@H]2[C@H](C)O1 (relative stereo) [Example 32, (2R,4S,4aS)-rel-8-[benzyl(methyl)amino]-11-fluoro-2,4-dimethyl-1,2,4,4a-tetrahydro-2′H,6H-spiro[1,4-oxazino[4,3-a][1,2]oxazolo[4,5-g]quinoline-5,5′-pyrimidine]-2′,4′,6′(1′H,3′H)-trione], C[C@@H]1CN2c3c(cc4c(OCc5ccccc5)noc4c3F)CC3(C(=O)NC(=O)NC3=O)[C@H]2[C@H](C)O1 (relative stereo) [Example 52, (2R,4S,4aS)-rel-8-(benzyloxy)-11-fluoro-2,4-dimethyl-1,2,4,4a-tetrahydro-2′H,6H-spiro[1,4-oxazino[4,3-a][1,2]oxazolo[4,5-g]quinoline-5,5′-pyrimidine]-2′,4′,6′(1′H,3′H)-trione] is 4-fold higher in IC50: 0.6 µM for the first, 2.4 µM for the second.

First: C[C@@H]1CN2c3c(cc4c(-n5cc(-c6ccncn6)cn5)noc4c3F)CC3(C(=O)NC(=O)NC3=O)[C@H]2[C@H](C)O1 (relative stereo) [Example 34, (2R,4S,4aS)-rel-11-fluoro-2,4-dimethyl-8-[4-(pyrimidin-4-yl)-1H-pyrazol-1-yl]-1,2,4,4a-tetrahydro-2′H,6H-spiro[1,4-oxazino[4,3-a][1,2]oxazolo[4,5-g]quinoline-5,5′-pyrimidine]-2′,4′,6′(1′H,3′H)-trione]
Second: C[C@@H]1CN2c3c(cc4c(-n5cc(-c6cnccn6)cn5)noc4c3F)CC3(C(=O)NC(=O)NC3=O)[C@H]2[C@H](C)O1 (relative stereo) [Example 35, (2R,4S,4aS)-rel-11-fluoro-2,4-dimethyl-8-[4-(pyrazin-2-yl)-1H-pyrazol-1-yl]-1,2,4,4a-tetrahydro-2′H,6H-spiro[1,4-oxazino[4,3-a][1,2]oxazolo[4,5-g]quinoline-5,5′-pyrimidine]-2′,4′,6′(1′H,3′H)-trione]
The IC50 of the first is 1.8-fold lower: 16.3 µM for the first, 30 µM for the second. The first is the more potent here.

Compared with C[C@@H]1CN2c3c(cc4c(-c5ccccn5)noc4c3Cl)CC3(C(=O)NC(=O)NC3=O)[C@H]2[C@H](C)O1 (relative stereo) [Example 38, (2R,4S,4aS)-rel-11-chloro-2,4-dimethyl-8-(pyridin-2-yl)-1,2,4,4a-tetrahydro-2′H,6H-spiro[1,4-oxazino[4,3-a][1,2]oxazolo[4,5-g]quinoline-5,5′-pyrimidine]-2′,4′,6′(1′H,3′H)-trione], C[C@@H]1CN2c3c(cc4c(-c5ccncn5)noc4c3Cl)CC3(C(=O)NC(=O)NC3=O)[C@H]2[C@H](C)O1 (relative stereo) [Example 43, (2R,4S,4aS)-rel-11-chloro-2,4-dimethyl-8-(pyrimidin-4-yl)-1,2,4,4a-tetrahydro-2′H,6H-spiro[1,4-oxazino[4,3-a][1,2]oxazolo[4,5-g]quinoline-5,5′-pyrimidine]-2′,4′,6′(1′H,3′H)-trione] is 1.6-fold lower in IC50: 0.8 µM for the first, 0.5 µM for the second. The second is the more potent here.

First: Cc1ccc(-c2noc3c(Cl)c4c(cc23)CC2(C(=O)NC(=O)NC2=O)[C@H]2[C@H](C)O[C@H](C)CN42)cn1 (relative stereo) [Example 40, (2R,4S,4 aS)-rel-11-chloro-2,4-dimethyl-8-(6-methylpyridin-3-yl)-1,2,4,4a-tetrahydro-2′H,6H-spiro[1,4-oxazino[4,3-a][1,2]oxazolo[4,5-g]quinoline-5,5′-pyrimidine]-2′,4′,6′(1′H,3′H)-trione]
Second: C[C@@H]1CN2c3c(cc4c(-c5cccnc5)noc4c3Cl)CC3(C(=O)NC(=O)NC3=O)[C@H]2[C@H](C)O1 (relative stereo) [Example 47, (2R,4S,4aS)-rel-11-chloro-2,4-dimethyl-8-(pyridin-3-yl)-1,2,4,4a-tetrahydro-2′H,6H-spiro[1,4-oxazino[4,3-a][1,2]oxazolo[4,5-g]quinoline-5,5′-pyrimidine]-2′,4′,6′(1′H,3′H)-trione]
The IC50 of the first is 5.3-fold higher: 1.6 µM for the first, 0.3 µM for the second. The second is the more potent here.

C[C@@H]1CN2c3c(cc4c(-c5cncs5)noc4c3Cl)CC3(C(=O)NC(=O)NC3=O)[C@H]2[C@H](C)O1 (relative stereo) [Example 41, (2R,4S,4aS)-rel-11-chloro-2,4-dimethyl-8-(1,3-thiazol-5-yl)-1,2,4,4a-tetrahydro-2′H,6H-spiro[1,4-oxazino[4,3-a][1,2]oxazolo[4,5-g]quinoline-5,5′-pyrimidine]-2′,4′,6′(1′H,3′H)-trione] and C[C@@H]1CN2c3c(cc4c(-c5nccs5)noc4c3Cl)CC3(C(=O)NC(=O)NC3=O)[C@H]2[C@H](C)O1 (relative stereo) [Example 48, (2R,4S,4aS)-rel-11-chloro-2,4-dimethyl-8-(1,3-thiazol-2-yl)-1,2,4,4a-tetrahydro-2′H,6H-spiro[1,4-oxazino[4,3-a][1,2]oxazolo[4,5-g]quinoline-5,5′-pyrimidine]-2′,4′,6′(1′H,3′H)-trione] are within 1.5-fold of each other in IC50: 0.8 µM for the first, 1 µM for the second.

Compared with C[C@@H]1CN2c3c(cc4c(-c5ccnnc5)noc4c3Cl)CC3(C(=O)NC(=O)NC3=O)[C@H]2[C@H](C)O1 (relative stereo) [Example 45, (2R,4S,4aS)-rel-11-chloro-2,4-dimethyl-8-(pyridazin-4-yl)-1,2,4,4a-tetrahydro-2′H,6H-spiro[1,4-oxazino[4,3-a][1,2]oxazolo[4,5-g]quinoline-5,5′-pyrimidine]-2′,4′,6′(1′H,3′H)-trione], C[C@@H]1CN2c3c(cc4c(-c5ccncc5)noc4c3Cl)CC3(C(=O)NC(=O)NC3=O)[C@H]2[C@H](C)O1 (relative stereo) [Example 46, (2R,4S,4aS)-rel-11-chloro-2,4-dimethyl-8-(pyridin-4-yl)-1,2,4,4a-tetrahydro-2′H,6H-spiro[1,4-oxazino[4,3-a][1,2]oxazolo[4,5-g]quinoline-5,5′-pyrimidine]-2′,4′,6′(1′H,3′H)-trione] is 1.6-fold lower in IC50: 1.6 µM for the first, 1 µM for the second.

Going from COCc1noc2c(Cl)c3c(cc12)CC1(C(=O)NC(=O)NC1=O)[C@H]1[C@H](C)O[C@H](C)CN31 (relative stereo) [Example 49, (2R,4S,4aS)-rel-11-chloro-8-(methoxymethyl)-2,4-dimethyl-1,2,4,4a-tetrahydro-2′H,6H-spiro[1,4-oxazino[4,3-a][1,2]oxazolo[4,5-g]quinoline-5,5′-pyrimidine]-2′,4′,6′(1′H,3′H)-trione] to COc1noc2c(F)c3c(cc12)CC1(C(=O)NC(=O)NC1=O)[C@H]1[C@H](C)O[C@H](C)CN31 (relative stereo) [Example 51, (2R,4S,4aS)-rel-11-fluoro-8-methoxy-2,4-dimethyl-1,2,4,4a-tetrahydro-2′H,6H-spiro[1,4-oxazino[4,3-a][1,2]oxazolo[4,5-g]quinoline-5,5′-pyrimidine]-2′,4′,6′(1′H,3′H)-trione], the IC50 falls from 1.7 µM to 1 µM (1.7-fold). The second is the more potent here.
